The experiment addresses HDAC1 (Homo sapiens (Human), UniProt Q13547). The following applies: read-out: HDAC1 IC50.

A value given as a limit tells only on which side of the number the result lay.

Chain of HDAC1 (Q13547 whole entry): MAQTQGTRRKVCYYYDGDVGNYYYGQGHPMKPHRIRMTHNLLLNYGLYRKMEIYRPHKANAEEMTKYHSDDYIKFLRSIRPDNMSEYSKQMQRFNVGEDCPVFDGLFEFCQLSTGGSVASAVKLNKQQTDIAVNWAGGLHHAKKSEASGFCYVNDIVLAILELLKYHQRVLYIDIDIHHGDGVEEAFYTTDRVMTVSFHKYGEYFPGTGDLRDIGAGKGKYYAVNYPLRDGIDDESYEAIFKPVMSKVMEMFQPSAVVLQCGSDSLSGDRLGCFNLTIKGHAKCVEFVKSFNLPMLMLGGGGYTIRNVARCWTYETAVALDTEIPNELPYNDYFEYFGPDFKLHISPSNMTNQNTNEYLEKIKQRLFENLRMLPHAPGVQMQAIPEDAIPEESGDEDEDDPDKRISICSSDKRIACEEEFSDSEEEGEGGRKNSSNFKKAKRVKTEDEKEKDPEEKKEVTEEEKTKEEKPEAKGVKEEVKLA

For the compound `O=C1Nc2ccc(F)cc2C1Cc1ccc(-c2noc(C(F)(F)F)n2)cc1` (racemic) [Example 193, 5-fluoro-3-{4-[5-(trifluoromethyl)-1,2,4-oxadiazol-3-yl]benzyl}-1,3-dihydro-2H-indol-2-one], the IC50 amounted to 0.71 µM. In the case of `O=C1CCC(c2ccc(-c3noc(C(F)(F)F)n3)cc2)N1c1cccc(F)c1` (racemic) [Example 325, 1-(3-fluorophenyl)-5-{4-[5-(trifluoromethyl)-1,2,4-oxadiazol-3-yl]phenyl}pyrrolidin-2-one], the IC50 came to 2.5 µM. Consider `Cc1ccc2c3c(nn2c1)CCC(NCc1ccc(-c2noc(C(F)(F)F)n2)cc1)C3` (racemic) [Example 352, 8-methyl-N-({4-[5-(trifluoromethyl)-1,2,4-oxadiazol-3-yl]phenyl}methyl)-1,2,3,4-tetrahydropyrido[1,2-b]indazol-2-amine], for which the IC50 came out at 0.044 µM.

Consider `Cc1ccc2c3c(nn2c1)CCC(NCc1ccc(-c2noc(C(F)(F)F)n2)cc1)C3` (racemic) [Example 355, 8-methyl-N-({4-[5-(trifluoromethyl)-1,2,4-oxadiazol-3-yl]phenyl}methyl)-1,2,3,4-tetrahydropyrido[1,2-b]indazol-2-amine], for which the IC50 came out at 0.048 µM. In the case of `Cc1noc([C@H]2CCCCN2c2ccc(-c3noc(C(F)(F)F)n3)c(Cl)c2)n1` [Example 18, (R)-3-(2-Chloro-4-(2-(3-methyl-1,2,4-oxadiazol-5-yl)piperidin-1-yl)phenyl)-5-(trifluoromethyl)-1,2,4-oxadiazole], the IC50 was > 15 µM. Turning to `O=C(NCc1ccc(-c2noc(C(F)(F)F)n2)cc1)c1cc(N2CCOCC2)ccn1` [Example 204, 4-morpholin-4-yl-N-{4-[5-(trifluoromethyl)-1,2,4-oxadiazol-3-yl]benzyl}pyridine-2-carboxamide], the IC50 came out at 1 µM. For `O=C(NCc1ccc(-c2noc(C(F)(F)F)n2)cc1)c1cccc(O)c1` [Example 205, 3-hydroxy-N-{4-[5-(trifluoromethyl)-1,2,4-oxadiazol-3-yl]benzyl}benzamide], the IC50 was found to be 0.72 µM.

With `CCn1cc(COc2cc(-c3noc(C(F)(F)F)n3)ccn2)c(C)n1` [Example 206, 2-[(1-ethyl-3-methyl-1H-pyrazol-4-yl)methoxy]-4-[5-(trifluoromethyl)-1,2,4-oxadiazol-3-yl]pyridine], the concentration for half-maximal inhibition (IC50) stood at 4.2 µM. As for `FC(F)(F)c1nc(-c2ccnc(OCc3c(Cl)nc4sccn34)c2)no1` [Example 208, 6-chloro-5-[({4-[5-(trifluoromethyl)-1,2,4-oxadiazol-3-yl]pyridin-2-yl}oxy)methyl]imidazo[2,1-b][1,3]thiazole], the IC50 was 3.1 µM. As for `FC(F)(F)c1nc(-c2ccnc(OCc3cc4n(n3)CCCO4)c2)no1` [Example 210, 2-[({4-[5-(trifluoromethyl)-1,2,4-oxadiazol-3-yl]pyridin-2-yl}oxy)methyl]-6,7-dihydro-5H-pyrazolo[5,1-b][1,3]oxazine], the figure is 1.2 µM; as for `Cc1cc(C)nc(COc2cc(-c3noc(C(F)(F)F)n3)ccn2)c1` [Example 211, 2,4-dimethyl-6-[({4-[5-(trifluoromethyl)-1,2,4-oxadiazol-3-yl]pyridin-2-yl}oxy)methyl]pyridine], 2.5 µM; as for `FC(F)(F)c1nc(-c2ccnc(OCc3ccnn3-c3cccnc3)c2)no1` [Example 212, 2-[(1-pyridin-3-yl-1H-pyrazol-5-yl)methoxy]-4-[5-(trifluoromethyl)-1,2,4-oxadiazol-3-yl]pyridine], 1.9 µM. `Cc1cnc(COc2cc(-c3noc(C(F)(F)F)n3)ccn2)cn1` [Example 213, 2-methyl-5-[({4-[5-(trifluoromethyl)-1,2,4-oxadiazol-3-yl]pyridin-2-yl}oxy)methyl]pyrazine]: the IC50 stood at 1.9 µM. As for `FC(F)(F)c1nc(-c2ccnc(OCc3cnc(Cl)cn3)c2)no1` [Example 214, 2-chloro-5-[({4-[5-(trifluoromethyl)-1,2,4-oxadiazol-3-yl]pyridin-2-yl}oxy)methyl]pyrazine], the figure is 1.4 µM; as for `FC(F)(F)c1nc(-c2ccnc(OCc3cncc(Cl)n3)c2)no1` [Example 215, 2-chloro-6-[({4-[5-(trifluoromethyl)-1,2,4-oxadiazol-3-yl]pyridin-2-yl}oxy)methyl]pyrazine], 1.2 µM. As for `FC(F)(F)c1nc(-c2ccnc(OCc3cncc(N4CCNCC4)n3)c2)no1` [Example 216, 2-piperazin-1-yl-6-[({4-[5-(trifluoromethyl)-1,2,4-oxadiazol-3-yl]pyridin-2-yl}oxy)methyl]pyrazine], the figure is 1.1 µM; as for `FC(F)(F)c1nc(-c2ccnc(OCc3ncccc3Cl)c2)no1` [Example 217, 3-chloro-2-[({4-[5-(trifluoromethyl)-1,2,4-oxadiazol-3-yl]pyridin-2-yl}oxy)methyl]pyridine], 3.8 µM.

As to `FC(F)Cn1nc(COc2cc(-c3noc(C(F)(F)F)n3)ccn2)cc1C1CC1` [Example 218, 2-{[5-cyclopropyl-1-(2,2-difluoroethyl)-1H-pyrazol-3-yl]methoxy}-4-[5-(trifluoromethyl)-1,2,4-oxadiazol-3-yl]pyridine], the IC50 came to 0.87 µM. In the case of `FC(F)(F)Cn1nc(COc2cc(-c3noc(C(F)(F)F)n3)ccn2)cc1C1CC1` [Example 219, 2-{[5-cyclopropyl-1-(2,2,2-trifluoroethyl)-1H-pyrazol-3-yl]methoxy}-4-[5-(trifluoromethyl)-1,2,4-oxadiazol-3-yl]pyridine], the IC50 turned out to be 0.92 µM. As for `Cc1cc(COc2cc(-c3noc(C(F)(F)F)n3)ccn2)nn1CC(F)F` [Example 220, 2-{[1-(2,2-difluoroethyl)-5-methyl-1H-pyrazol-3-yl]methoxy}-4-[5-(trifluoromethyl)-1,2,4-oxadiazol-3-yl]pyridine], the IC50 is 1.2 µM. On to `FC(F)(F)c1nc(-c2ccnc(OCc3ccn(C4CC4)n3)c2)no1` [Example 222, 2-[(1-cyclopropyl-1H-pyrazol-3-yl)methoxy]-4-[5-(trifluoromethyl)-1,2,4-oxadiazol-3-yl]pyridine], for which the IC50 was 3.5 µM. Regarding `CC(C)n1ccc(COc2cc(-c3noc(C(F)(F)F)n3)ccn2)n1` [Example 223, 2-{[1-(1-methylethyl)-1H-pyrazol-3-yl]methoxy}-4-[5-(trifluoromethyl)-1,2,4-oxadiazol-3-yl]pyridine], the IC50 came to 2.4 µM. On to `Cn1nc(COc2cc(-c3noc(C(F)(F)F)n3)ccn2)cc1C(C)(C)C` [Example 224, 2-[(5-tert-butyl-1-methyl-1H-pyrazol-3-yl)methoxy]-4-[5-(trifluoromethyl)-1,2,4-oxadiazol-3-yl]pyridine], for which the IC50 worked out at 1.2 µM. Take `O=C1CCc2ccc(Br)cc2N1Cc1ccc(-c2noc(C(F)(F)F)n2)cc1` [Example 319, 7-bromo-1-{4-[5-(trifluoromethyl)-1,2,4-oxadiazol-3-yl]benzyl}-3,4-dihydroquinolin-2(1H)-one]: the IC50 turned out to be 0.18 µM. Turning to `O=c1ccc2ccc(F)cc2n1Cc1ccc(-c2noc(C(F)(F)F)n2)cc1` [Example 322, 7-fluoro-1-{4-[5-(trifluoromethyl)-1,2,4-oxadiazol-3-yl]benzyl}quinolin-2(1H)-one], the 50% inhibitory concentration (IC50) is 0.26 µM. `O=C1CCc2ccc(F)cc2N1Cc1ccc(-c2noc(C(F)(F)F)n2)cn1` [Example 323, 7-fluoro-1-({5-[5-(trifluoromethyl)-1,2,4-oxadiazol-3-yl]pyridin-2-yl}methyl)-3,4-dihydroquinolin-2(1H)-one]: the IC50 came out at 0.053 µM. In the case of `O=C1CCc2ccccc2N1Cc1ccc(-c2noc(C(F)(F)F)n2)cn1` [Example 324, 1-({5-[5-(trifluoromethyl)-1,2,4-oxadiazol-3-yl]pyridin-2-yl}methyl)-3,4-dihydroquinolin-2(1H)-one], the IC50 was 0.15 µM. With `O=C1c2cc(F)ccc2CCN1Cc1ccc(-c2noc(C(F)(F)F)n2)cn1` [Example 327, 7-fluoro-2-({5-[5-(trifluoromethyl)-1,2,4-oxadiazol-3-yl]pyridin-2-yl}methyl)-3,4-dihydroisoquinolin-1(2H)-one], the IC50 turned out to be 0.64 µM.

As for `O=C1CCc2ncccc2N1Cc1ccc(-c2noc(C(F)(F)F)n2)cn1` [Example 328, 1-({5-[5-(trifluoromethyl)-1,2,4-oxadiazol-3-yl]pyridin-2-yl}methyl)-3,4-dihydro-1,5-naphthyridin-2(1H)-one], the IC50 came to 0.58 µM. As for `Fc1ccc2c(c1)N(Cc1ccc(-c3noc(C(F)(F)F)n3)cn1)CCO2` [Example 347, 6-fluoro-4-({5-[5-(trifluoromethyl)-1,2,4-oxadiazol-3-yl]pyridin-2-yl}methyl)-3,4-dihydro-2H-1,4-benzoxazine], the half-maximal inhibitory concentration (IC50) is 0.6 µM. Take `CC1(Cc2ccc(-c3noc(C(F)(F)F)n3)cc2)C(=O)Nc2ccc(F)cc21` (stereo not drawn) [Example 348, 5-fluoro-3-methyl-3-{4-[5-(trifluoromethyl)-1,2,4-oxadiazol-3-yl]benzyl}-1,3-dihydro-2H-indol-2-one]: the IC50 is 2.4 µM. As for `FC(F)(F)c1nc(-c2ccc(CNc3cccc(-c4cnco4)c3)nc2)no1` [Example 360, 3-(1,3-oxazol-5-yl)-N-({5-[5-(trifluoromethyl)-1,2,4-oxadiazol-3-yl]pyridin-2-yl}methyl)aniline], the figure is 0.0076 µM; as for `FC(F)(F)c1nc(-c2ccc(CNc3cccc(-n4cncn4)c3)nc2)no1` [Example 364, 3-(1H-1,2,4-triazol-1-yl)-N-({5-[5-(trifluoromethyl)-1,2,4-oxadiazol-3-yl]pyridin-2-yl}methyl)aniline], 0.06 µM; as for `NC(=O)c1cccc(CCOc2cc(-c3noc(C(F)(F)F)n3)ccn2)c1` [Example 459, 3-[2-({4-[5-(trifluoromethyl)-1,2,4-oxadiazol-3-yl]pyridin-2-yl}oxy)ethyl]benzamide], 1.8 µM.

For `O=c1ccc2ccccc2n1Cc1ccc(-c2noc(C(F)(F)F)n2)cn1` [Example 460, 1-({5-[5-(trifluoromethyl)-1,2,4-oxadiazol-3-yl]pyridin-2-yl}methyl)quinolin-2(1H)-one], the half-maximal inhibitory concentration (IC50) came out at 0.099 µM. As for `O=C1CSc2ccccc2N1Cc1ccc(-c2noc(C(F)(F)F)n2)cn1` [Example 463, 4-({5-[5-(trifluoromethyl)-1,2,4-oxadiazol-3-yl]pyridin-2-yl}methyl)-2H-1,4-benzothiazin-3(4H)-one], the figure is 0.13 µM.

The values are drawn from US11066396B2 (priority 2016, dated 2021).
